# US20020102246A1, “Antimicrobial compositions” (Novozymes A/S, priority 2000, published 2002)
# Marks after values point to notes of the source that are not given here.
# System: Pseudomonas putida (ATCC 12633)
# Test: Antimicrobial activity of mediators oxidized by Coprinus cinereus peroxidase (rCiP)
# Assay type: cell-based
# Settings: 50 μM mediator, rCiP 4 POXU/L, 0.5 mM hydrogen peroxide, 20 minutes at 40° C., pH 7; 6 corresponds to a total kill
# Description: Antibacterial activity of 4-aminophenol, 4-hydroxy-4′-dimethylamino azobenzene, 4,4′-biphenol, 10-methylphenoxazine and 4,4′-dihydroxydiphenyl ether was evaluated when oxidized by Coprinus cinereus peroxidase (rCiP) (available from Novozymes A/S).
# Antimicrobial activity was determined on Pseudomonas putida (ATCC 12633), the cells were grown in Tryptone Soy Broth, TSB (Oxoid CM129) overnight, washed two times in sterile 0.9% saline and suspended in 50 mM HEPES buffer (Sigma H3375) at pH 7 to a cell concentration of approximately 10^6 CFU/ml. The mediators were added to the cell suspension to a final concentration of 50 μM, rCiP was added to the concentration 4 POXU/L and the enzyme reaction was started by addition of hydrogen peroxide to a final concentration of 0.5 mM. Antimicrobial activity was determined after 20 minutes incubation at 40° C., by a 10-fold dilution of the cell suspension into TSB substrate and incubation overnight. Antimicrobial activity was determined as log10 reduction, thus a log10 reduction of 2 corresponds to a kill of 99%.
row,Structure (SMILES),Log10 reduction
1,"Oc1ccc(-c2ccc(O)cc2)cc1 [4,4′-Biphenol, 97%, 4,4′-Biphenol]",1.5
2,"Oc1ccc(Oc2ccc(O)cc2)cc1 [4,4′-Dihydroxyphenyl ether, 4,4′-Dihydroxydiphenyl ether]",2.5
3,CN(C)c1ccc(N=Nc2ccc(O)cc2)cc1 [4-Hydroxy-4′-dimethylamino azobenzene],6*
4,Nc1ccc(O)cc1 [4-aminophenol],2.5
5,CN1c2ccccc2Oc2ccccc21 [10-Methylphenoxazine],3
